Values quoted from earlier work as cited in patent US20060025476A1, “Use of methyl pyruvate for the purpose of reducing weight gain in mammals” (priority 2004, published 2006).
Like-named read-outs stand apart in the source and are kept apart here. One block for each molecule: values may come before it.

Key:
Na(+)-K(+)-ATPase = details: 10 microM
PPAR-alpha [1] = molecular target: T1, PPAR-alpha (Rattus norvegicus, UniProt P37230); design: from tissue; details: control and high-fat-fed rats
T1 sequence (P37230 1-468): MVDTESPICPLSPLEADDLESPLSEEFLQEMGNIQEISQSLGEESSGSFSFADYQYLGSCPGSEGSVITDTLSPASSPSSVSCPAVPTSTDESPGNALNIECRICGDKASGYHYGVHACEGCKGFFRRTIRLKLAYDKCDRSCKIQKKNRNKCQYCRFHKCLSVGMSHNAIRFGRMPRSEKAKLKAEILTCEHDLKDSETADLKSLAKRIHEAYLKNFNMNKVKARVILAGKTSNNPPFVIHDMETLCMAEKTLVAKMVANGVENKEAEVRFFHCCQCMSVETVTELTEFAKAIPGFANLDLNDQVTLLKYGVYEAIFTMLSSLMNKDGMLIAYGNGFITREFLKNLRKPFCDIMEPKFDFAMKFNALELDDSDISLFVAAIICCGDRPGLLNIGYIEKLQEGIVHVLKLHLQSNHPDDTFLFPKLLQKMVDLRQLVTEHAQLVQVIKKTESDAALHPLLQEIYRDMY

PPAR-alpha [2] = molecular target: T1, PPAR-alpha; design: from tissue; host or cells: rat gastrocnemius muscle, in vivo; details: gastrocnemius muscle, feeding
PPARa/g = details: high-fat-fed rats
[3] = test system: fetal rat brown adipocyte primary cultures
porcine carotid arteries = details: added to amino-oxyacetic acid
UCP-1 mRNA expression = details: 4-5 h, basal or rosiglitazone-treated cells
[4] = test system: guinea-pig cerebral cortical synaptosomes
pancreatic beta-cells [5] = test system: pancreatic beta-cells
pancreatic beta-cells [6] = test system: pancreatic beta-cells; remark: listed apart in the source
K(ATP) channels = molecular target: T2, K(ATP) channels (Homo sapiens, UniProt Q09428+Q14654)
T2 construct: endogenous in cells; host or cells: pancreatic beta-cells
T2 sequence (Q14654 whole entry): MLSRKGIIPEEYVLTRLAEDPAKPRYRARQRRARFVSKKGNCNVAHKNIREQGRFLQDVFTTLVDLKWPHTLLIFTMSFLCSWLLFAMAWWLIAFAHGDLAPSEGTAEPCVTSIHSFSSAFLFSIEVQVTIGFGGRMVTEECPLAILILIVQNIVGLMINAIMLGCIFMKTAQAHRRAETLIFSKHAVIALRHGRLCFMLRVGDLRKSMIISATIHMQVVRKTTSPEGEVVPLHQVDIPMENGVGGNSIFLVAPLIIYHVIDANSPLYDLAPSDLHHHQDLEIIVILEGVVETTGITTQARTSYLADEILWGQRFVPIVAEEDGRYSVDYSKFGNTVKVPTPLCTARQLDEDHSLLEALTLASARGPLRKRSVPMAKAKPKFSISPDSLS
T2 sequence (Q09428 whole entry): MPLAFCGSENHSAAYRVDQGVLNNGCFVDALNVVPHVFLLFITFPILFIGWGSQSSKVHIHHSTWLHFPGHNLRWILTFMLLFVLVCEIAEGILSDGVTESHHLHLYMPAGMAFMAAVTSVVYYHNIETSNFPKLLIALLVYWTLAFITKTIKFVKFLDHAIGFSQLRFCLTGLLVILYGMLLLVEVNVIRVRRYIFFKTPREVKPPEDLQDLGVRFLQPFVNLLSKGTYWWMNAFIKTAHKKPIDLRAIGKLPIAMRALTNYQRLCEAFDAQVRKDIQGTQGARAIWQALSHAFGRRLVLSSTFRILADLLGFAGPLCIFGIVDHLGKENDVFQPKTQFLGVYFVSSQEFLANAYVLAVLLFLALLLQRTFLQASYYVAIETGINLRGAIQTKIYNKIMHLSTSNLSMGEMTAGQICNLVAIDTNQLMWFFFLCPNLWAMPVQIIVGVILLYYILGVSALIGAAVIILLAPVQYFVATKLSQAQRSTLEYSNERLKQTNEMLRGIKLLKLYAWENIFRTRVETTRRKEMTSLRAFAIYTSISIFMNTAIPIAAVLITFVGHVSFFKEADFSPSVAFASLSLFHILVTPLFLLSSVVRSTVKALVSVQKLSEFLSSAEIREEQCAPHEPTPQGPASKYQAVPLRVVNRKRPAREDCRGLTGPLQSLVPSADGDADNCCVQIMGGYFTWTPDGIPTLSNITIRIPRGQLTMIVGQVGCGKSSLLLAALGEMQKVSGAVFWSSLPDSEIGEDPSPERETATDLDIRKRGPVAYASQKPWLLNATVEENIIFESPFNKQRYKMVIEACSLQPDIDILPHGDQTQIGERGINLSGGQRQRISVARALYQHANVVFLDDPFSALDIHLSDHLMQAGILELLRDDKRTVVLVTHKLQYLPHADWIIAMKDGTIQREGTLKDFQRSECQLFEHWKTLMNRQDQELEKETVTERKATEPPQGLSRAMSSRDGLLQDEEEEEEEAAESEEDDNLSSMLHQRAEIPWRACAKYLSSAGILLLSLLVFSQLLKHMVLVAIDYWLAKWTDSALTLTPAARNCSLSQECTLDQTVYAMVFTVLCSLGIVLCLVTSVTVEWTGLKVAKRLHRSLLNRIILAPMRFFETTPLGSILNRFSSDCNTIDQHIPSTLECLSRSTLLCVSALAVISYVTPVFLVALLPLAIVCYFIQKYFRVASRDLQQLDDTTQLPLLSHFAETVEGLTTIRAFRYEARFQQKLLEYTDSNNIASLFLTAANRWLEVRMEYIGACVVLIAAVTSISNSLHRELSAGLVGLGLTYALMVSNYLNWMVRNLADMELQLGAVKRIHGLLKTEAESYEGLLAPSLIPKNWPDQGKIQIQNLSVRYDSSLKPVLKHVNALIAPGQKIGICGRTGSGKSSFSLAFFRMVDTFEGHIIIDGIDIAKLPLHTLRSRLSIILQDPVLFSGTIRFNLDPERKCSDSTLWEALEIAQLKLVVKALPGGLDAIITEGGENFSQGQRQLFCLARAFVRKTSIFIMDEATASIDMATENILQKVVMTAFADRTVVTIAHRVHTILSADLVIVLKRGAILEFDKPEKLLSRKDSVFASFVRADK

[7] = test system: isolated beta-cell mitochondria; details: accumulation of ATP in medium, in combination with glutamate
whole islets = details: 5 mM
[8] = test system: Jurkat T-lymphocyte mitochondria
[9] = test system: isolated rat pancreatic islets; details: compared with pyruvate
[10] = test system: isolated rat pancreatic islets
pancreatic islets = details: NAD(P)H imaging with LipDH autofluorescence
[11] = test system: porcine carotid artery strips

Structure (SMILES): CC(C)CC[C@@H](O)[C@@H](C)[C@H]1CC[C@H]2[C@@H]3CC=C4C[C@@H](O)CC[C@]4(C)[C@H]3CC[C@]12C [22 (R)-hydroxycholesterol]
- suppressive effects of LXRs on PPARa-induced PPRE-luciferase activity (LXR): dose dependently enhanced

Structure (SMILES): C[C@@H]1O[C@@H](O[C@H]2C[C@@H](O)[C@]3(CO)[C@H]4[C@H](O)C[C@]5(C)[C@@H](C6=CC(=O)OC6)CC[C@]5(O)[C@@H]4CC[C@]3(O)C2)[C@H](O)[C@H](O)[C@H]1O [ouabain]
- glycolysis and lactate production (Na(+)-K(+)-ATPase): decreased

- suppressive effects of LXRs on PPARa-induced PPRE-luciferase activity (LXR): dose dependently enhanced
Structure (SMILES): O=S(=O)(c1ccccc1)N(CC(F)(F)F)c1ccc(C(O)(C(F)(F)F)C(F)(F)F)cc1 [T0901317]

- hepatic PDK4 protein (PPAR-alpha [1]): significantly increased
- pyruvate dehydrogenase kinase activity, PDK4 protein and PDK4 mRNA (PPAR-alpha [2]): large increases
Structure (SMILES): Cc1cccc(Nc2cc(Cl)nc(SCC(=O)O)n2)c1C [WY14,643]

Structure (SMILES): CCO[C@@H](Cc1ccc(OCCc2ccc(OS(C)(=O)=O)cc2)cc1)C(=O)O [tesaglitazar]
- diglyceride and long chain acyl coenzyme A in skeletal muscle (PPARa/g): decreased
- hepatic triglyceride accumulation (PPARa/g): reduced
- glucose infusion rate during hyperinsulinemic-euglycemic clamp (PPARa/g; 7 d): increase

- p44/p42 and p38 mitogen-activated protein kinase activation [3]: induce
Structure (SMILES): CC1=C(/C=C/C(C)=C/C=C/C(C)=C/C(=O)O)C(C)(C)CCC1 [all-trans-retinoic acid]

- p44/p42 and p38 mitogen-activated protein kinase activation [3]: induce
Structure (SMILES): CC1=C(/C=C/C(C)=C\C=C\C(C)=C\C(=O)O)C(C)(C)CCC1 [9-cis-retinoic acid]

Structure (SMILES): CCCCCCCC(=O)O [octanoate]
- adverse energetic effects of malate-aspartate shuttle inhibition (porcine carotid arteries): normalized

Structure (SMILES): COc1cccc(-c2cc(=O)c3ccccc3o2)c1N [PD98059]
- negative effect of TNF-alpha on UCP-1 mRNA expression (UCP-1 mRNA expression): reversed

Structure (SMILES): NOCC(=O)O [amino-oxyacetic acid]
- negative shift in the cytosolic NAD+/NADH redox potential [4]: 26 mV

- block of KATP (K(ATP) channels): block
- single-channel currents (K(ATP) channels; inside-out patches): blocked
- K(ATP) current (K(ATP) channels; standard whole-cell configuration): inhibited
Structure (SMILES): COC(=O)C(C)=O [methyl pyruvate]
- increase in insulin secretion relative to that induced by glucose (pancreatic beta-cells [5]): 6 fold
- concentration of maximal effect on insulin secretion (pancreatic beta-cells [5]; absence of glucose): 5 mM
- ATP production or ATP/ADP ratio (pancreatic beta-cells [6]): did not influence
- NAD(P)H autofluorescence (pancreatic beta-cells [6]): slightly decreased
- [Ca2+]i (pancreatic beta-cells [6]): sustained rise
- depolarization of beta-cell membrane potential (pancreatic beta-cells [6]; 5-20 mM): depolarized the beta-cell in a concentration-dependent manner
- cytosolic free Ca(2+) concentration (pancreatic beta-cells [6]; after an initial decrease): increased
- electrical activity (pancreatic beta-cells [6]; presence of 0.5 mM glucose): elicited electrical activity
- ATP production with glutamate [7]: higher than that induced by pyruvate/glutamate
- ATP/ADP ratio in whole islets (whole islets): no effect
- cation current across the inner membrane of mitochondria [8]: directly inhibited
- efficiency in intramitochondrial metabolism (amino acid conversion, inhibition of glucose utilization, 14CO2 output) [9]: more efficient than pyruvate
- mitochondrial alkalinization [9]: more marked mitochondrial alkalinization than pyruvate
- insulin release ([10]; D-glucose 16.7 mM and/or methyl ester 20.0 mM): negative insulinotropic action
- insulin release ([10]; D-glucose 2.8 to 8.3 mM, ester not exceeding 10.0 mM): positive insulinotropic action
- NADH and NADPH response (pancreatic islets): robust NADH and NADPH response

Structure (SMILES): CC(O)C(=O)O (stereo not drawn) [lactate]
- increase of O2 consumption ([11]; 10 mm in PSS): without effect

Structure (SMILES): [Cl-].[K+] [KCl]
- change in resting tone ([11]; 10 mM KCl, glucose-PSS): -0.8 ± 0.8 g
- change in resting tone (increased contraction) ([11]; 10 mM KCl, lactate-PSS): 1.5 ± 0.7 g
- change in resting tone ([11]; 10 mM KCl, pyruvate-PSS): -2.1 ± 0.8 g
